Where two headings read alike, the source gives them in different places.
Key:
[1] = Method: A second more extensive group of potential oxygen scavengers were compared, again using a small laboratory boiler and oxygen saturated feed water containing sodium hydroxide. […] The hydrazine salts among this group are no less toxic than hydrazine and therefore were eliminated from further study. […] In addition, the carbohydrazide was preferred because it is a solid at room temperature and could therefore be used in dry formulations.
INITIAL SCREENING AT 227-239° F.

[2] = format: physicochemical; conditions: for Final Hydrazine Level / Percent Hydrolysis: fed at 100 ppm, pH 8.0, 600 p.s.i.
From the text: High temperature hydrolysis studies were next carried out again using reagent grade carbohydrazide containing approximately 2% hydrazine as an impurity. The apparatus used in this work was the once-through experimental apparatus for simulating boiler water transport referred to in Example 2, with feedwater pH set at 8.0 and system pressure at 600 p.s.i.
^1 Carbohydrazide was fed at 100 ppm; complete hydrolysis of the
carbohydrazide would theoretically yield 71.1 ppm N2 H4.

[3] = Metal passivation in experimental firerod boiler (Table IV)
From the text: Metal passivation studies were undertaken using an experimental firerod boiler under the following test conditions:
10 boiler water concentrations
40 ppm M alkalinity (as CaCO3)
A blank containing no oxygen scavenger was followed by test runs with hydrazine, carbohydrazide, and sodium sulfite.
*Tubes ranked by appearance of metal surface.

[4] = Corrosion control under static storage conditions; conditions: 160 moles or more of carbohydrazide per mole of oxygen
From the text: The amount of carbohydrazide required to effectively scavenge oxygen from the boiler water is dependent upon the amount of oxygen actually present therein. It is generally desirable that at least 0.5 moles of carbohydrazide be used per mole of oxygen. These minimum levels of carbohydrazide will have the added benefit of effectively passivating metal surfaces. Of course, levels of carbohydrazide considerably in excess of 0.5 moles per mole of oxygen may be required, particularly for treating boiler water under static storage conditions.

[5] = Oxygen scavenging in heated copper coil apparatus (FIG. 1); conditions: 135° F.; pH 9.0; initial O2 7.7 ppm; corresponding scavenger:oxygen levels
Method: Another series of tests comparing hydrazine and carbohydrazide were carried out with the results presented in graphic form in FIG. 1. These tests were carried out at a temperature of 135° F. and a pH of 9.0 to prevent hydrolysis of the carbohydrazide.
The apparatus used including a reciprocating pump drawing water from a water reservoir and moving it through a heated copper coil at a rate of about 37 ml/minute. The coil was mounted in a cooling column and dissolved oxygen was measured at its outlet. The initial oxygen reading taken at this point for these tests was 7.7 ppm.
After the initial oxygen reading was taken, the scavenger being tested was injected into the feed line before the reciprocating pump.

[6] = Commercial scale boiler comparison of oxygen scavenging
Method: Commercial scale comparisons were made between carbohydrazide and hydrazine. The tests were run on a system including a deaerator which treats a mixture of feed water and condensate at 60 p.s.i. and 300°-310° F. before it is fed to a first stage heater at 160 p.s.i. and 360°-366° F. and a second stage heater at 400 p.s.i. and 446°-450° F. The second stage heater then feeds into three boilers: a combination boiler at 1,275 p.s.i., a first power boiler at 1,275 p.s.i. and a second power boiler at 400 p.s.i. The treatment chemicals were fed alternatively at the deaerator and just down line from it.

[7] = 282 °F., residence time 14.5 min
[8] = 343 °F., residence time 14.5 min
[9] = 400 °F., residence time 14.5 min
[10] = 400 °F., residence time 15.0 min

## NNC(=O)NN [Carbohydrazide, N, N' diaminourea]
[1]
  Scavenger ranking of the remaining two compounds: the best scavenger
[1]; 227-239° F., Table II
  Oxygen scavenging activity relative to hydrazine: activity comparable to hydrazine
[1]; initial O2 40 ppb, 227-239° F.
  % O2 Removal: 87.5%
  Final O2: 5 ppb
[2]; 220° F.
  Hydrolysis at 220° F.: minimal
[2]; 282° F.
  Hydrolysis at 282° F.: minimal
[2]; [7]
  Final Hydrazine Level: 7 ppm
  Percent Hydrolysis: 7.0%
[2]; 340° F. through 400° F.
  Hydrolysis at 340° F. through 400° F.: still not complete
[2]; [8]
  Final Hydrazine Level: 45 ppm
  Percent Hydrolysis: 60.5%
[2]; [9]
  Final Hydrazine Level: 59 ppm
  Percent Hydrolysis: 80.2%
[2]; [10]
  Final Hydrazine Level: 61 ppm
  Percent Hydrolysis: 83.0%
[2]; about 220° F.
  Hydrazine found: less than 7%
[2]; residence time 14.5 min
  Percent Hydrolysis: 0%
[2]; temperature 21 °F. (so in the source), residence time 14.5 min
  Final Hydrazine Level: 2 ppm
[3]; dosage 1 ppm, 600 p.s.i., 48 hour test
  Tube Rank (by appearance of metal surface): 1
[3]; under the test conditions, Table IV
  Metal passivation effectiveness: the most effective metal passivator
[4]
  Corrosion control under static conditions: effective in controlling corrosion
[5]
  Oxygen scavenging relative to hydrazine: superior to the hydrazine
[6]; carbohydrazide levels half those of hydrazine
  Oxygen scavenging relative to hydrazine, various points: comparable or superior to the hydrazine
[6]; just past first stage heater, carbohydrazide at 50% of hydrazine level
  Oxygen scavenging relative to hydrazine at 360° F.: scavenged the oxygen more efficiently than the hydrazine
[6]; just past second stage heater, carbohydrazide at 50% of hydrazine level
  Oxygen scavenging relative to hydrazine at 446° F.: scavenged the oxygen more efficiently than the hydrazine
[6]; just past the deaerator, carbohydrazide at 50% of hydrazine level
  Oxygen scavenging relative to hydrazine at 300° F.: comparable with the hydrazine

From patent publication US4269717A, “Boiler additives for oxygen scavenging” (priority 1980, dated 1981)
